From patent US20220033397A1, “PHARMACEUTICAL COMPOUNDS AND THEIR USE AS INHIBITORS OF UBIQUITIN SPECIFIC PROTEASE 19 (USP19)” (ALMAC DISCOVERY LIMITED, priority 2018, published 2022) come the findings set out here.

What is called IC50 is the concentration that gives 50% inhibition.

The assay addresses T1, Full-length USP19 (Homo sapiens, UniProt O94966).
T1 construct: Full-length USP19 was purchased from Boston Biochem (E-576); purchased Boston Biochem E-576
T1 sequence (O94966 1-1318): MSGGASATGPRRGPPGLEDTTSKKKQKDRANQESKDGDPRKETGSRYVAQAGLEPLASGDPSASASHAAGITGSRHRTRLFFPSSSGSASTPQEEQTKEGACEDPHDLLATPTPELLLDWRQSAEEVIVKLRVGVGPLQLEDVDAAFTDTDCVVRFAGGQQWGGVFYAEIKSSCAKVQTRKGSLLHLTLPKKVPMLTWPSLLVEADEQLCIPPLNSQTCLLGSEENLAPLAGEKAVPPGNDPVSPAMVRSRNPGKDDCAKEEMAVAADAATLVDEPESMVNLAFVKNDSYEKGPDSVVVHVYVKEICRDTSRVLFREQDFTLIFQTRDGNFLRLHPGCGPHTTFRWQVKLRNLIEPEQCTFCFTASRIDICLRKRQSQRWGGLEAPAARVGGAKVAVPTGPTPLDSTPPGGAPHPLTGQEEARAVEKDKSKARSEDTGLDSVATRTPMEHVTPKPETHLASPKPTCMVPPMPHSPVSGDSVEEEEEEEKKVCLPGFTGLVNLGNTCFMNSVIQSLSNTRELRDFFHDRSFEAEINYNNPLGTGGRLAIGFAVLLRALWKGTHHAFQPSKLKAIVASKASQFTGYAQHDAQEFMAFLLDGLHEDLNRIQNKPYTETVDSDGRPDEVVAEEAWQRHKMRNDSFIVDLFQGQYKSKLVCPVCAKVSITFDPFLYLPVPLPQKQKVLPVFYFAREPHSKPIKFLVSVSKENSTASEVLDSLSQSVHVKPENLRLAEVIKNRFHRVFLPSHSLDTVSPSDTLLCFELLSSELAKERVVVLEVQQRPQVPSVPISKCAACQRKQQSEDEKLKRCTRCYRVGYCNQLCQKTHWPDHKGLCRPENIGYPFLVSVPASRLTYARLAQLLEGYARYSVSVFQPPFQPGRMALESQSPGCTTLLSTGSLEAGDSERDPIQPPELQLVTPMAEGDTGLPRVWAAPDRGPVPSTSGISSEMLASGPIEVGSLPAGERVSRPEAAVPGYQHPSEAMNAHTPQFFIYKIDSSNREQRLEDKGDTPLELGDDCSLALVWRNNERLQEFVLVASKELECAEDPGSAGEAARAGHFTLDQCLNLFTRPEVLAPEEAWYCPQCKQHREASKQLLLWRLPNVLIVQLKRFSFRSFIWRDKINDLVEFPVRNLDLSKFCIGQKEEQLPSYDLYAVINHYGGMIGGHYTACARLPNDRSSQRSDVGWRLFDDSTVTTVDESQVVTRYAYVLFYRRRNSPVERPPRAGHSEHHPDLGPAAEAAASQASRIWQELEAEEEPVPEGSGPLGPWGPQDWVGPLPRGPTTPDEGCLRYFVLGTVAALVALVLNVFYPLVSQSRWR
Kind of assay: USP19 fluorescence polarisation (FP) homogeneous assay with Ubiquitin-Lys-TAMRA substrate. Type of assay: biochemical. The note with it: 2.5 nM USP19, 30 min pre-incubation, average of at least two duplicate experiments. In a few lines: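 Full-length USP19 preincubated 30 min at RT with inhibitor (200 μM to 2 μM series, 8–18 points) before adding 500 nM Ubiquitin-Lys-TAMRA substrate.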
With `O=C(N1CCC(C2CC2)C1)N1CCC(O)(Cn2cnc(-c3ccccc3)cc2=O)C2(CCCC2)C1` (stereo not shown) [Example 237, 3-((7-(3-Cyclopropylpyrrolidine-1-carbonyl)-10-hydroxy-7-azaspiro[4.5]decan-10-yl)methyl)-6-phenylpyrimidin-4(3H)-one], the half-maximal inhibitory concentration (IC50) lay in the range of 5 to 50 µM.

Turning to `C[C@H](CC(F)(F)F)C(=O)N1CCC(O)(Cn2cnc3ccc(F)cc3c2=O)C2(CCCC2)C1` (stereo partly drawn) [Example 148, 6-Fluoro-3-((10-hydroxy-7-((R)-4,4,4-trifluoro-2-methylbutanoyl)-7-azaspiro[4.5]decan-10-yl)methyl)quinazolin-4(3H)-one], the IC50 was 5 to 50 µM.

On to `C[C@H](CC1CCCCC1)C(=O)N1CCC(O)(CN2Cc3cccnc3C2=O)C2(CCCC2)C1` (stereo partly drawn) [Example 102, 6-((7-((R)-3-Cyclohexyl-2-methylpropanoyl)-10-hydroxy-7-azaspiro[4.5]decan-10-yl)methyl)-5,6-dihydro-7H-pyrrolo[3,4-b]pyridin-7-one], for which the IC50 lay in the range of 5 to 50 µM. As to `O=C(N1CCC(O)(Cn2cnc(-c3ccccc3)cc2=O)C2(CCOCC2)C1)N1CCNC[C@H]1c1ccccc1` (stereo partly drawn) [Example 321, 3-((5-Hydroxy-2-((R)-2-phenylpiperazine-1-carbonyl)-9-oxa-2-azaspiro[5.5]undecan-5-yl)methyl)-6-phenylpyrimidin-4(3H)-one], the IC50 is < 0.5 µM. `O=C(NCC1CC(F)(F)C1)N1CC[C@@](O)(Cn2cnc(-c3ccccc3)cc2=O)C2(CCCC2)C1` [Example 307, (S)—N-((3,3-Difluorocyclobutyl)methyl)-10-hydroxy-10-((6-oxo-4-phenylpyrimidin-1(6H)-yl)methyl)-7-azaspiro[4.5]decane-7-carboxamide]: the IC50 was < 0.5 µM. With `O=C(N1CCC(O)(Cn2cnc(-c3ccccc3)cc2=O)C2(CCOCC2)C1)N1CCOC[C@H]1c1ccccc1` (stereo partly drawn) [Example 325, 3-((5-Hydroxy-2-((R)-3-phenylmorpholine-4-carbonyl)-9-oxa-2-azaspiro[5.5]undecan-5-yl)methyl)-6-phenylpyrimidin-4(3H)-one] the figure was < 0.5 µM.

As for `O=C(N1CC[C@@](O)(Cn2cnc(-c3cccc(F)c3)cc2=O)C2(CCCC2)C1)N1CCNC[C@H]1c1cccc(F)c1` [Example 375, 6-(3-Fluorophenyl)-3-(((S)-7-((R)-2-(3-fluorophenyl)pipera-zine-1-carbonyl)-10-hydroxy-7-aza-spiro[4.5]decan-10-yl)methyl)pyrimidin-4(3H)-one], the IC50 was < 0.5 µM. With `C[C@H](CC(=O)N1CCC(O)(CN2CCN(c3ccccc3F)CC2=O)CC1)c1ccccc1` [Example 24, (R)-4-(2-Fluorophenyl)-1-((4-hydroxy-1-(3-phenylbutanoyl)piperidin-4-yl)methyl)piperazin-2-one], the half-maximal inhibitory concentration (IC50) lay in the range of 50 to 250 µM. In the case of `O=C(NCc1ccc2c(c1)COC2)N1CCC(O)(Cn2cnc(-c3ccccc3)cc2=O)C2(CCCC2)C1` (stereo not shown) [Example 260, N-((1,3-Dihydroisobenzofuran-5-yl)methyl)-10-hydroxy-10-((6-oxo-4-phenylpyrimidin-1(6H)-yl)methyl)-7-azaspiro[4.5]decane-7-carboxamide] it was 5 to 50 µM; in that of `C[C@H](CC1CCCCC1)C(=O)N1CCC(O)(CN2Cc3ncccc3C2=O)C2(CCCC2)C1` (stereo partly drawn) [Example 103, 6-((7-((R)-3-Cyclohexyl-2-methylpropanoyl)-10-hydroxy-7-azaspiro[4.5]decan-10-yl)methyl)-6,7-dihydro-5H-pyrrolo[3,4-b]pyridin-5-one], 0.5 to 5 µM; in that of `C[C@H](CC(F)(F)F)C(=O)N1CCC(O)(Cn2ccc3ccc(F)cc3c2=O)C2(CCCC2)C1` (stereo partly drawn) [Example 135, 7-Fluoro-2-((10-hydroxy-7-((R)-4,4,4-trifluroo-2-methylbutanoyl)-7-azaspiro[4.5]decan-10-yl)methyl)isoquinolin-1(2H)-one], 5 to 50 µM. In the case of `O=C(NCc1noc(C2CC2)n1)N1CC[C@@](O)(Cn2cnc(-c3ccccc3)cc2=O)C2(CCCC2)C1` [Example 218, (S)—N-((5-Cyclopropyl-1,2,4-oxadiazol-3-yl)methyl)-10-hydroxy-10-((6-oxo-4-phenylpyrimidin-1(6H)-yl)methyl)-7-azaspiro[4.5]decane-7-carboxamide], the IC50 was 5 to 50 µM. On to `O=C(N1CC[C@@](O)(Cn2ccc(N3CCCC3)cc2=O)C2(CCCC2)C1)N1CCNC[C@H]1c1ccccc1` [Example 330, 1-(((S)-10-Hydroxy-7-((R)-2-phenylpiperazine-1-carbonyl)-7-azaspiro[4.5]decan-10-yl)methyl)-4-(pyrrolidin-1-yl)pyridin-2(1H)-one], for which the concentration for half-maximal inhibition (IC50) was < 0.5 µM. With `COC(=O)c1cn(CC2(O)CCN(C(=O)[C@H](C)CC3CCCCC3)CC23CCCC3)c(=O)cn1` (stereo partly drawn) [Example 8, Methyl 4-((7-((R)-3-cyclohexyl-2-methylpropanoyl)-10-hydroxy-7-azaspiro[4.5]decan-10-yl)methyl)-5-oxo-4,5-dihydropyrazine-2-carboxylate] the figure was < 0.5 µM; with `O=C(N1CC[C@@](O)(Cn2cnc(N3CC4CC4C3)cc2=O)C2(CCCC2)C1)N1CCNC[C@H]1c1cc(F)ccc1F` (stereo partly drawn) [Example 389, 6-(3-Aza-bicyclo[3.1.0]hexan-3-yl)-3-(((S)-7-((R)-2-(2,5-difluoro-phenyl)piperazine-1-carbonyl)-10-hydroxy-7-aza-spiro[4.5]decan-10-yl)methyl)pyrimidin-4(3H)-one], < 0.5 µM; with `CNc1cc(=O)n(C[C@]2(O)CCN(C(=O)N3CCNC[C@H]3c3ccccc3)CC23CCCC3)cn1` [Example 319, 3-(((S)-10-Hydroxy-7-((R)-2-phenylpiperazine-1-carbonyl)-7-azaspiro[4.5]decan-10-yl)methyl)-6-(methylamino)pyrimidin-4(3H)-one], < 0.5 µM. In the case of `CSc1cn(CC2(O)CCN(C(=O)[C@H](C)CC3CCCCC3)CC23CCCC3)c(=O)cc1Cl` (stereo partly drawn) [Example 76, 4-Chloro-1-((7-((R)-3-cyclohexyl-2-methylpropanoyl)-10-hydroxy-7-azaspiro[4.5]decan-10-yl)methyl)-5-(methylthio)pyridin-2(1H)-one] it was < 0.5 µM; in that of `C[C@H](CC(F)(F)F)C(=O)N1CCC(O)(CN2CCN(C(=O)c3ccccc3)CC2=O)C2(CCCC2)C1` (stereo partly drawn) [Example 108, 4-Benzoyl-1-((10-hydroxy-7-((R)-4,4,4-trifluoro-2-methylbutanoyl)-7-azaspiro[4.5]decan-10-yl)methyl)Piperazin-2-one], 5 to 50 µM. For the molecule `CN(Cc1ccoc1)C(=O)N1CCC(O)(Cn2cnc(-c3ccccc3)cc2=O)C2(CCCC2)C1` (stereo not shown) [Example 232, N-(Furan-3-ylmethyl)-10-hydroxy-N-methyl-10-((6-oxo-4-phenylpyrimidin-1(6H)-yl)methyl)-7-azaspiro[4.5]decane-7-carboxamide], the IC50 fell in the range of 0.5 to 5 µM. Consider `O=C(N1CC[C@@](O)(Cn2cnc(-c3ccccc3F)cc2=O)C2(CCCC2)C1)N1CCNC[C@H]1c1cc(F)ccc1F` [Example 387, 3-(((S)-7-((R)-2-(2,5-Difluorophenyl)piper-azine-1-carbonyl)-10-hydroxy-7-azaspiro[4.5]decan-10-yl)methyl)-6-(2-fluorophenyl)pyrimi-din-4(3H)-one], for which the IC50 is < 0.5 µM.

In the case of `CN1CCN(C(=O)N2CC[C@@](O)(Cn3cnc(-c4ccccc4)cc3=O)C3(CCCC3)C2)[C@H](c2ccccc2)C1` [Example 281, 3-(((S)-10-Hydroxy-7-((R)-4-methyl-2-phenylpiperazine-1-carbonyl)-7-azaspiro[4.5]decan-10-yl)methyl)-6-phenylpyrimidin-4(3H)-one], the IC50 is < 0.5 µM. Regarding `O=C(N1CCC(O)(Cn2cnc(-c3ccccc3)cc2=O)C2(CCCCC2)C1)N1CCNC[C@H]1c1ccccc1` (stereo partly drawn) [Example 298, 3-((5-Hydroxy-2-((R)-2-phenylpiperazine-1-carbonyl)-2-azaspiro[5.5]undecan-5-yl)methyl)-6-phenylpyrimidin-4(3H)-one], the IC50 was < 0.5 µM.
